What was measured:
[1] = tested on: mitochondrial respiration of VX2 tumor mitochondria; experiment: Mitochondrial respiration (oxygen consumption, Clark electrode); assay type: biochemical, rabbit; details: 1.2 mM; basal (succinate) and ADP stimulated rate
Method: The freshly isolated liver or VX2 tumor tissues (15-20 g wet weight) was rinsed in 3 volumes of H-medium (210 mM D-mannitol, 70 mM sucrose, 2 mM Hepes, and 0.05% bovine albumin, pH 7.4) at 4° C. and minced with a razor blade as finely as possible. A 30% (V/V) suspension was made using ice-cold H-medium in a Potter-Elvehjem glass homogenizer (55 ml capacity), and homogenization was achieved by applying 4 complete up and down strokes through the suspension with a rotating (˜400 rpm), serrated, teflon pestle attached to a motor. To remove cell debris and nuclei, the resultant homogenate was diluted to twice the initial volume and centrifuged at 630×g for 8 minutes at 4° C. in a Sorvall RC-2B centrifuge using a GSA rotor. The supernatant was removed and then centrifuged at 6,800 g for 15 min under the same conditions. The resultant supernatant was saved and referred to here as the cytosolic faction. […]
Oxygen consumption rates were measured polarographically using a Clark oxygen electrode inserted into a 2.5 ml chamber equipped with a magnetic stirrer. […] The loss of oxygen was monitored in a 2.1 ml system at 25° C. containing 1 mg mitochondria, 0.5 mM EDTA, 2.0 mM Hepes, 220 mM D-mannitol, 70 mM sucrose, 2.5 mM KPi, 2.6 mM MgCl2, and 0.5 mg/ml bovine albumin, and, where indicated, 7.8 mM succinate (respiratory substrate), and 0.24 mM ADP (ATP synthesis substrate). […]

[2] = tested on: AS-30D hepatoma cells; experiment: Killing of AS-30D hepatoma cells (trypan blue); assay type: cell-based, rat; details: 5 mM, 12 h
Method: AS-30D hepatoma cells grown in the peritoneal cavity of Sprague Dawley female rats (see Materials) were adapted to grow in tissue culture in Dulbecco's modified Eagle's medium containing 10% fetal bovine serum. Cells were maintained at 37° C. in a humidified atmosphere containing 5% CO2, and counted in a Neubauer chamber after trypan blue dye addition (cell/dye volume=1/1) by visualization under a Nikon inverted microscope.
The studies described above using the VX2 tumor model for liver cancer predict that 2DOG and 3BrPA may have the capacity to kill hepatoma cells expressing the high glycolytic/high hexokinase phenotype. […] Cell killing was assessed in these experiments by counting those cells in which trypan blue had entered.

[3] = tested on: "metastatic" lung tumors; experiment: Systemic delivery via marginal ear vein, metastatic lung nodules; assay type: in vivo, rabbit
Method: FIG. 4 depicts the effect of systemic delivery of 3-BrPA on animals harboring the liver implanted VX2 tumor. FIG. 4A depicts histological sections of 9 different tissues isolated 4 days after injecting 3-BrPA (25 ml 0.5 mM) into a marginal ear vein. No damage to these tissues is evident. (Magnification=120×). FIG. 4B depicts a section from a liver implanted VX2 tumor isolated from a control animal not receiving 3-BrPA. […] Cells in both appear completely viable. (Magnification 120×) FIG. 4D depicts a section of lung tissue isolated from an animal in which the liver harbored a VX2 tumor after 14 days of growth. […] (Animals evaluated=4).
Finally, it was important to examine the effect of 3-BrPA when delivered systemically (i.e., via the general circulation) on both animal toxicity and its capacity to damage liver implanted tumors.

[4] = tested on: Vx-2; experiment: ATP levels after treatment, Vx-2; assay type: cell-based, rabbit; details: 0.1, 0.2, 0.3 mM for 1 and 3 hours
Method: ATP levels were measured in various cell lines, e.g., HepG2, Sk-Hep1, and Vx-2 after 3-bromopyruvate treatment. In each case, cells were treated with increasing concentration of 3-bromopyruvate (0.1 mM, 0.2 mM, and 0.3 mM) for 1 and 3 hours before measuring ATP levels in the cell. FIGS. 5 (A-C) show the ATP depletion observed following 3-bromopyruvate treatment in HepG2, Sk-Hep1, and Vx-2 cell lines, respectively.

## O=C(O)C(=O)CBr [3-bromopyruvate]
[1]
  inhibition of mitochondrial respiration: completely inhibits
[2]
  cell killing: all cells
[3]; 25 ml 0.5 mM, 4 days
  metastatic lung tumors with a diameter greater than 1 mm: almost complete disappearance
[3]; of >27 tumors counted, untreated 5
  number of metastatic lung tumors greater than 1 mm in diameter: none
[4]
  ATP levels: ATP depletion
